Key:
[1] = tested on: the skin; experiment: use of the cosmetic applied onto the skin (feeling in use, evaporation of the HFE, skin moisture); format: in vivo; details: after the cosmetic was applied onto the skin
Method: 50% by weight of a perfluoropolyether (FOMBLIN HC/04 manufactured by Audimont) (viscosity at 25° C.: 70 mPa·s) was mixed with 50% by weight of C4F9OCH3 (HFE A) (viscosity at 25° C.: 0.6 mPa·s) under stirring to give a solution. Thereafter, a very small amount of a perfume was added to give a non-aqueous lotion. This non-aqueous lotion was felt very smooth in use.
The powder ingredients in the formulation shown in Table 2 were mixed and ground with an atomizer and then transferred to a Henschel mixer. Then FOMBLIN HC/04 was added thereto, and the mixture was uniformly mixed. The mixture was dispersed in […] (HFE B) (viscosity at 25° C.: 0.7 mPa·s) to give a solvent dispersion-type foundation. This solvent dispersion-type foundation was felt very smooth in use.
The ingredients (1) to (8) in the formulation shown in Table 3 were mixed and ground in a colloid mill. After this mixture was heated at 80° C., the ingredients (9) to (13) which had been heated and mixed at 80° C. were added thereto and emulsified uniformly in a homomixer. The ingredient (14) was added to this emulsion, further emulsified uniformly in a homomixer, and cooled to room temperature to give a liquid foundation. This liquid foundation was felt very smooth in use. […]

[2] = viscosity by Brookfield type viscometer or capillary tube viscometer; format: physicochemical
Method: The viscosity of the fluorine-containing oil is e.g. at least 5 mPa·s, particularly 10 to 10,000 mPa·s. The viscosity of the fluorine oil (and the HFE) was measured by a Brookfield type viscometer or a capillary tube viscometer.

Molecule	evaporation of the HFE [1]	viscosity at 25° C. [2] [mPa·s]
CCOC(F)(F)C(F)(F)C(F)(F)C(F)(F)F [HFE B, C4F9OC2H5]	evaporated rapidly	0.7
FC(F)C(F)(F)OCC1(COCC(COC(F)(F)C(F)F)(COC(F)(F)C(F)F)COC(F)(F)C(F)F)COC1 [chemical formula B]		40
C4F9OCH3 [HFE A]	evaporated rapidly	0.6

— patent publication US20020182240A1, “Cosmetics with hydrofluoroether (HFE)” (Daikin Industries, priority 1997, published 2002)
